# Values of other authors in patent publication EP4729553A1, “BLOCK POLYMER, AND COLORING MATERIAL DISPERSION AND INK COMPOSITION USING SAME” (Mikuni Shikiso Kabushiki Kaisha, priority 2023, dated 2024).
# Conditions: monomer, trade product data
substance,measurement,value
ethoxylated o-phenylphenol acrylate [A-LEN10],LogP,3.98
